Laboratory results: ChEMBL document CHEMBL5120897, “Anti-HIV Tigliane-Type Diterpenoids from the Aerial Parts of Wikstroemia lichiangensis” (J Nat Prod, 2022)

Legend:
[1] = tested on: Human immunodeficiency virus 1; test: Anti-HIV activity against HIV-1 NL4-3 Nanoluc-sec virus infected in human MT4 cells assessed as luciferase activity and measured 3 days post-infection by Nano-Glo luciferase assay; format: functional, organism-based; details: Human immunodeficiency virus 1, NL4-3, MT4, 72 h
MT4 = test: Cytotoxicity against human MT4 cells assessed as reduction in cell viability by CellTiter-Glo luminescent cell viability assay; format: functional

SMILES | IC50 [1] [nM] | CC50 (MT4) [nM]
CCCCCCCCCC(=O)O[C@@]12[C@H](OC(=O)c3ccccc3)[C@@H](C)[C@]3(O)[C@@H]4C=C(C)C(=O)[C@@]4(O)[C@H](O)C(CO)=C[C@H]3[C@@H]1C2(C)C | 1.5 | > 7000
CCCC/C=C/C=C/CC(=O)O[C@@]12[C@H](OC(=O)c3ccccc3)[C@@H](C)[C@]3(O)[C@@H]4C=C(C)C(=O)[C@@]4(O)[C@H](O)C(CO)=C[C@H]3[C@@H]1C2(C)C | 65.4 | > 7000
C=C(C)[C@]12C[C@@H](COC(=O)c3ccccc3)[C@@]34OC5(O[C@@H]1[C@@H]3[C@@H]1O[C@]1(CO)[C@@H](O)[C@@]1(O)[C@H]4[C@H]([C@H](C)[C@@H]1OC(=O)c1ccccc1)[C@H](C)CCCCCC[C@H]5O)O2 | 0.15 | > 7000
CCCCCC/C=C/CC(=O)O[C@@]12[C@H](OC(=O)c3ccccc3)[C@@H](C)[C@]3(O)[C@@H]4C=C(C)C(=O)[C@@]4(O)[C@H](O)C(CO)=C[C@H]3[C@@H]1C2(C)C | 1.5 | > 7000
CCCC/C=C/C=C/CC(=O)O[C@@]12[C@H](OC(=O)c3ccccc3)[C@@H](C)[C@@]3(O)[C@@H](C=C(CO)C[C@]4(O)C(=O)C(C)=C[C@@H]34)[C@@H]1C2(C)C | 3 | > 7000
CCCCCC/C=C/CC(=O)O[C@@]12[C@H](OC(=O)c3ccccc3)[C@@H](C)[C@@]3(O)[C@@H](C=C(CO)C[C@]4(O)C(=O)C(C)=C[C@@H]34)[C@@H]1C2(C)C | 1.1 | > 7000
